Data as given in publication PMC6430387, “Vertebrate odorant binding proteins as antimicrobial humoral components of innate immunity for pathogenic microorganisms” (PLoS ONE, 2019).
pIC50, pKd: −log10 of the molar value.

How the values were obtained:
Format in all cases: binding
[1] = target: T1, bovine OBP (6-His-bOBP) (Bos taurus, UniProt P07435); test: direct fluorescence titration
T1 construct: domain-swapped homodimer
T1 sequence (P07435 1-159): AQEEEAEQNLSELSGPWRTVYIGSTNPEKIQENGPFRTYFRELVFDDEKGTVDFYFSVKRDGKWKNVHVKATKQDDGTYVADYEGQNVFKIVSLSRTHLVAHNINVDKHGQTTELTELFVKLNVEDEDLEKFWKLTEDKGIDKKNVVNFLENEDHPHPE

[2] = target: T2, porcine OBP (6-His-pOBP) (Sus scrofa, UniProt P81245); test: direct fluorescence titration
T2 construct: monomer
T2 sequence (P81245 1-157): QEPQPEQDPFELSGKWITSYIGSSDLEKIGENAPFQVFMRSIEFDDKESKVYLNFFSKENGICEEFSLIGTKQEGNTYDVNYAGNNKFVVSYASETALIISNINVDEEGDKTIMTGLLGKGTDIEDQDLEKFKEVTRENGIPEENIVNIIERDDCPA

[3] = target: T1, bovine OBP (6-His-bOBP); test: retention on OBP-Ni-NTA agarose filter; chromatography-MS; conditions: 10-40 μM ligand loaded; submillimolar immobilised OBP; uncoupled resin as control
[4] = target: T1, bovine OBP (6-His-bOBP); test: competitive displacement of 1-aminoanthracene, fluorescence; conditions: read-out: Kdapp
[5] = target: T2, porcine OBP (6-His-pOBP); test: as above; conditions: read-out: Kdapp
[6] = target: T2, porcine OBP (6-His-pOBP); test: retention on OBP-Ni-NTA agarose filter, chromatography-MS; conditions: 0.34 μM ligand loaded; submillimolar immobilised OBP
[7] = target: T2, porcine OBP (6-His-pOBP); test: retention on OBP-Ni-NTA agarose filter; eluate quantified; conditions: 5 and 10 μM ligand loaded; submillimolar immobilised OBP; uncoupled resin as control

SMILES: Nc1cccc2cc3ccccc3cc12 [1-aminoanthracene]
- pKd [1]: 6.14
- pKd [2]: 6.11

SMILES: CCCC(=O)N[C@H]1CCOC1=O [C4AHL, N-butyryl-L-homoserine-lactone]
- % retention [3]: 63.2±5.8%-80.6±4.2%

SMILES: CC(C)=CCC/C(C)=C/CC/C(C)=C/CO [farnesol]
- pIC50 [4]: 5.43
- pIC50 [5]: 6.11

SMILES: CCCCCCCCCC(=O)CC(=O)N[C@H]1CCOC1=O [oxo-C12AHL, N-(3-oxododecanoil)-L-homoserine-lactone]
- % bound [6]: 89.2±2.4%

SMILES: Cn1c2cccc(=O)c-2nc2ccccc21 [pyocyanin]
- % retention [7]: 66±13% and 85±15%
